Reference: patent US10765690B2, “TLR4 agonists and compositions thereof and their use in the treatment of cancer” (GlaxoSmithKline Intellectual Property Development Limited, priority 2015, dated 2020)
Values joined by “and” are separate entries in the source; they are usually repeats but may differ in a detail not shown here. Identical values can stand only once.

System: Murine CT-26 colon carcinoma cells
Test: CT-26 syngeneic colon carcinoma model, intratumoral or intravenous monotherapy (Example 10, studies 1-3)
Format: in vivo, Balb/c mice
Description: The in vivo anti-tumor efficacy of the TLR4 agonist (CRX-601) was assessed in the murine CT-26 colon carcinoma syngeneic solid tumor model as a monotherapy and in combination with […] a therapeutic antibody (combination data not shown). Seven to eight week old female Balb/c mice (BALB/cAnNCrl, Charles River) were used in these studies. Murine CT-26 colon carcinoma cells (ATCC catalog number CRL-2638 lot #59227052) were cultured in RPMI growth medium supplemented with 10% fetal bovine serum (FBS) in a humidified 37° C. incubator with 5% CO2, CT-26 cells cultured in logarithmic growth were harvested from tissue culture flasks and centrifuged for 5 minutes at 450×g at 4° C. for ten minutes to pellet cells. The supernatant was discarded, and cells were washed in ice cold phosphate buffered saline (PBS) without calcium and magnesium and centrifuged again for 5 minutes at 450×g at 4° C. for ten minutes to pellet cells. The cells were resuspended in sterile RPMI media without FBS and adjusted to a cell concentration of 500,000 cells/ml, 100 μl of the cell stock was implanted via subcutaneous injection into the right flank of each Balb/c mouse. After ten or eleven days when the average tumor size reached approximately 100 mm^3, mice were randomized into study cohorts according to tumor size and the first treatment dose was given. The TLR4 agonist (CRX-601) or vehicle was dosed via a systemic intravenous or direct intratumoral injection as indicated. The CRX-601 vehicle used for intravenous and intratumoral dosing was […] where indicated. For CRX-601 liposomal intratumoral dosing, a DOPC/CHOL liposome prepared by GSK Lot #1783-157-B was used. The therapeutic antibody was dosed via an intraperitoneal injection given twice per week for a total of six doses. Caliper measurements were taken three times per week to assess tumor growth, and mice with tumors <2,000 mm^3 were maintained on study from 30 up to approximately 115 days. Mice with tumors >2,000 mm^3 for 2 consecutive measurements or mice with tumors which formed open ulcers were removed from the study. Tumor volume was calculated using the formula (0.52)×(Length)×(Width^2). In study 3, tumor-free mice were re-challenged with CT-26 tumor cells as described above, on the opposite flank from the original inoculation site and tumor growth was monitored, as described above. All studies were conducted in accordance with the GSK Policy on the Care, Welfare and Treatment of Laboratory Animals and were reviewed by the Institutional Animal Care and Use Committee at GSK.
For studies 1 and 2, to determine significance of tumor growth inhibition, tumor volumes at 11 study 1) or 15 (study 2) days after first dose were compared between the different treatment groups. Prior to the analysis, tumor volumes were natural log transformed due to the inequality of variance in the different treatment groups. ANOVA followed by pair-wise comparison was then carried out on the log transformed data. SAS 9.3 and R 3.0.2 analysis software was used. Kaplan-Meier (KM) method was carried out to estimate the survival probability of different treatment groups at a given time. The event for survival analysis was tumor volume of 2000 mm^3 or tumor ulceration, whichever came first. The exact time to cut-off volume was estimated by fitting a linear line between log tumor volume and day of two observations, the first observation that exceed the cut-off volume and the one observation that immediately preceded the cut-off volume. The median time to endpoint and its corresponding 95% confidence interval was calculated. Whether or not KM survival curves were statistically different between any two groups was then tested by log-rank test. The raw p-value, as well as the false discovery rate (FDR) adjusted p-values, from the comparisons of days to events by survival analysis and the comparisons of log transformed tumor volume at indicated days between treatment groups was determined. […]

Structure (SMILES): CCCCCCCCCCC[C@H](CC(=O)N[C@H]1[C@H](OC[C@H](NC(=O)C[C@@H](CCCCCCCCCCC)OCCCCCCCCCC)C(=O)O)O[C@H](CO)[C@@H](OP(=O)(O)O)[C@@H]1OC(=O)C[C@@H](CCCCCCCCCCC)OCCCCCCCCCC)OCCCCCCCCCC [CRX-601]
- tumor status of single mouse remaining on study (study 1, 10 ug intratumoral group, day 42): tumor-free
- tumor growth inhibition compared to vehicle (study 1, 10 ug/mouse intratumoral twice per week, 6 doses, 11 days after the initial dose, p-values 0.05): statistically significant
- tumor-free mice among mice remaining on study (study 1, 50 ug intratumoral group, day 42): Three of the four
- tumor volume of remaining tumor-bearing mouse (study 1, 50 ug intratumoral group, fourth mouse, day 42): 854.19 mm^3
- increase in survival compared to vehicle (study 1, 50 ug intratumoral single dose, by day 42 post CT26 inoculation, p-values<=0.05): statistically significant
- tumor growth inhibition compared to vehicle (study 1, 50 ug/mouse intratumoral single dose, 11 days after the initial dose, p-values 0.05): statistically significant
- anti-tumor activity (tumor growth inhibition over time) (study 1, intratumoral dosing 0.1, 1, 10 ug/mouse twice per week x6 or 50 ug single dose): dose-dependent anti-tumor activity
- tumor volume of single mouse remaining on study (study 2, 10 ug intravenous group, day 32): 188.0 mm^3
- tumor growth inhibition compared to vehicle (study 2, 10 ug/mouse intravenous twice per week, 6 doses, 15 days after the initial dose, p-values<=0.05): statistically significant
- tumor-free mice among mice remaining on study (study 2, 100 ug intravenous group, day 32): One of the three
- tumor volumes of remaining tumor-bearing mice (study 2, 100 ug intravenous group, day 32, individual mice): 1500.49 mm^3 and 962.61 mm^3
- increase in survival compared to vehicle (study 2, 100 ug intravenous single dose, day 32 post CT-26 inoculation, p-values<=0.05): statistically significant increase
- tumor growth inhibition compared to vehicle (study 2, 100 ug/mouse intravenous single dose, 15 days after the initial dose, p-values<=0.05): statistically significant
- anti-tumor activity (tumor growth inhibition over time) (study 2, intravenous dosing 1, 10 ug/mouse twice per week x6 or 100 ug single dose): dose-dependent anti-tumor activity
- CT26 tumor growth on re-challenge (study 3, fully regressed tumor-free mice re-challenged on day 80, opposite flank, vs naive control mice): rejected with no tumor growth
- mice showing full tumor regressions (study 3 Group 2, 25 ug/mouse IV once per week x3): 5 out of 10
- increase in survival compared to control Group 1 (study 3 Group 2, 25 ug/mouse IV once per week x3, 80 days after the first dose, p-values<=0.05): statistically significant
- tumor growth inhibition compared to control Group 1 (study 3 Group 2, 25 ug/mouse intravenous in 0.5% Glycerol/4% dextrose once per week x3 (+Rat IgG1), 12 days after the initial dose, p-values<=0.05): statistically significant
- increase in survival compared to control Group 5 (study 3 Group 7, 25 ug/mouse intratumoral DOPC/CHOL liposome once per week x3, 80 days after the first dose, p-values<=0.05): statistically significant
- tumor growth inhibition compared to control Group 5 (study 3 Group 7, 25 ug/mouse intratumoral in DOPC/CHOL liposome once per week x3 (+Rat IgG1), 12 days after the initial dose, p-values<=0.05): statistically significant
